Source: patent US20250304537A1 (Repare Therapeutics Inc., priority 2022, published 2025)
Where two headings read alike, the source gives them in different places.

System: PKMYT1 (CDK1 pThr14) in FUOV1 cells
Test: PKMYT1 cell-based activity assay, CDK1 pThr14 AlphaLISA in FUOV1 cells
Conditions: read-out: FUOV-1 CDK1 pThr14 IC50
Procedure: To determine compound IC50 (PKMYT1 cell-based activity assay, CDK1 pThr14 AlphaLISA), FUOV1 cells were plated into a 96-well TC-treated culture plate at 50000 cells/well in a final volume of 100 μL of media. The plates were then allowed to equilibrate in a biological safety cabinet for 30 minutes before being placed in a humidified incubator at 37 C and 5% CO2 overnight. The next day, 2 μL of PKMYT1 inhibitors or DMSO were diluted in 400 μL of warmed culture media in a 96-well block using a Biomek FX liquid handler. Compounds were mixed in media and then 25 μL was dispensed into each well of the 96-well cell plate. Plates were centrifuged at 300 g for 10 seconds and then placed in the incubator for 2 hours. After the 2-hour incubation with compound, media was removed via aspiration using a multichannel pipette. 30 μL of 1× AlphaLISA lysis buffer (Perkin Elmer) supplemented with protease and phosphatase inhibitors as well as 1 mM PMSF, was added to each well. Plates were rotated at 500 g for 20 minutes to facilitate lysis. Plates were then sealed with aluminum foil and frozen at −80° C. for at least 1 hour. Lysates were thawed at 37° C. for 10 minutes, then 10 μL of each lysate was transferred in duplicate to a white 384-well assay plate. Antibody mixture was prepared in 1× AlphaLISA assay buffer (Perkin Elmer) containing antibodies (5 nM final concentration for rabbit pThr14-CDK1 from Abcam #ab58509 and mouse total CDK1 from ThermoFisher Scientific #33-1800). 5 μL of antibody mixture was added to each well of the assay plate. The assay plate was sealed and stored at 4° C. overnight. The next day, AlphaLISA bead mixture (Perkin Elmer) was prepared in 1× AlphaLISA assay buffer. Anti-rabbit IgG Acceptor (Perkin Elmer #AL104C) and anti-mouse IgG Donor beads (Perkin Elmer #AS104D) were prepared to a concentration of 80 μg/ml in assay buffer. 5 μL of bead mixture was added to each well of the assay plate (20 μg/ml final concentration for each bead). The plate was protected from light and incubated for 2 hours at room temperature. After a 2-hour incubation with beads, the plate was read using the Perkin Elmer EnVision Multimode plate reader with excitation at 680 nm and emission at 615 nm.

Row | SMILES | IC50 (2 h, 2 hours with compound) | IC50 (2 h, 2 h compound incubation) | other results
1 | Cc1ccc2[nH]ncc2c1-c1nc(-c2cn(C)nc2Nc2ncccn2)nc(C(N)=O)c1N [Compound 926] | 659 nM |  | 
2 | Cc1ccc2[nH]ncc2c1-c1nc(-c2ccc(C(F)(F)F)nc2Nc2ncccn2)nc(C(N)=O)c1N [Compound 760] |  | 201 nM | 
3 | Cc1ccc2[nH]ncc2c1-c1nc(-c2cc(F)ccc2Nc2cnn(C)c2)nc(C(N)=O)c1N [Compound 521] |  | 582 nM | 
4 | Cc1ccc2[nH]ncc2c1-c1cc2c(oc3ccc(N4CCOCC4)nc32)c(C(N)=O)c1N [Compound 652] |  | 266 nM | 
5 | Cc1ccc2[nH]ncc2c1-c1nc(-c2cccnc2N[C@@H]2CCOC2)nc(C(N)=O)c1N [Compound 547] |  | 50 nM | 
6 | Cc1cc(F)c2[nH]ncc2c1-c1nc(-c2cccnc2NC2CC2)nc(C(N)=O)c1N [Compound 871] | 39 nM |  | 
7 | Cc1ccc2[nH]ncc2c1-c1nc(-c2cccnc2NC[C@H]2CCCOC2)nc(C(N)=O)c1N [Compound 667] |  | 42 nM | 
8 | Cc1ccc2[nH]ncc2c1-c1nc(-c2cccnc2Nc2nccnc2C)nc(C(N)=O)c1N [Compound 728] |  | 56 nM | 
9 | Cc1ccc2[nH]ncc2c1-c1nc(-c2cc(F)cnc2OC2CC(C)(O)C2)nc(C(N)=O)c1N (centres unmarked) [Compound 841] | 1120 nM |  | 
10 | Cc1ccc2[nH]ncc2c1-c1cc2c(oc3ccc(OCC(C)(C)C#N)nc32)c(C(N)=O)c1N [Compound 559] |  | 1290 nM | 
11 | Cc1cnc(Nc2cc(F)ccc2-c2nc(C(N)=O)c(N)c(-c3c(C)ccc4[nH]ncc34)n2)s1 [Compound 587] |  | 172 nM | 
12 | Cc1ccc2[nH]ncc2c1-c1nc(-c2cc(F)cnc2N[C@H]2C[C@H]3CC[C@@H]2O3)nc(C(N)=O)c1N [Compound 891] | 22 nM |  | 
13 | Cc1ccc2[nH]ncc2c1-c1nc(-c2ccc(F)nc2Nc2nc(F)ccc2F)nc(C(N)=O)c1N [Compound 921] | 4 nM |  | 
14 | Cc1ccc2[nH]ncc2c1-c1nc(-c2cc(C#N)ccc2Nc2ncccn2)nc(C(N)=O)c1N [Compound 789] |  | 43 nM | 
15 | Cc1ccc2[nH]ncc2c1-c1nc(-c2ccc(Cl)nc2Nc2ncccn2)nc(C(N)=O)c1N [Compound 759] |  | 33 nM | 
16 | Cc1ccc(F)c(Nc2nc(F)ccc2-c2nc(C(N)=O)c(N)c(-c3c(C)c(F)cc4[nH]ncc34)n2)n1 [Compound 850] | 5 nM |  | 
17 | Cc1ccc2[nH]ncc2c1-c1nc(-c2nccnc2NCC(F)(F)F)nc(C(N)=O)c1N [Compound 555, 5-amino-6-(5-methyl-1H-indazol-4-yl)-2-(3-((2,2,2-trifluoroethyl)amino)pyrazin-2-yl)pyrimidine-4-carboxamide] |  | 219 nM | 
18 | Cc1ccc2[nH]ncc2c1-c1nc(-c2cc(F)cnc2N[C@H]2CC[C@](C)(O)CC2)nc(C(N)=O)c1N [Compound 722] |  | 232 nM | 
19 | Cc1cc(Nc2cc(F)ccc2-c2nc(C(N)=O)c(N)c(-c3c(C)ccc4[nH]ncc34)n2)nc(C)n1 [Compound 578] |  | 150 nM | 
20 | Cc1ccc2[nH]ncc2c1-c1nc(-c2ccc(F)cc2Nc2nccc(C#N)n2)nc(C(N)=O)c1N [Compound 532] |  | 21 nM | 

Row | SMILES | IC50 (2 h, 2 hours with compound) | IC50 (2 h, 2 h compound incubation) | other results
21 | NC(=O)c1nc(-c2ccc(F)nc2Nc2ncccc2F)nc(-c2c(Cl)ccc3[nH]ncc23)c1N [Compound 913] | 8 nM |  | 
22 | Cc1ccc2[nH]ncc2c1-c1nc(-c2cccnc2Nc2ncccc2F)cc(C(N)=O)c1N [Compound 846] | 12 nM |  | 
23 | Cc1ccc(-c2nc(C(N)=O)c(N)c(-c3c(C)ccc4[nH]ncc34)n2)c(Nc2nccc(Cl)n2)n1 [Compound 941] | 9 nM |  | 
24 | NC(=O)c1nc(-c2cccnc2NCC(F)(F)F)nc(-c2c(Cl)c(F)cc3[nH]ncc23)c1N [Compound 942] | 396 nM |  | 
25 | [2H]C([2H])([2H])c1ccc2[nH]ncc2c1-c1nc(-c2cc(F)cnc2N[C@H]2C[C@@](C)(O)C2)nc(C(N)=O)c1N [Compound 964] | 68 nM |  | 
26 | NC(=O)c1nc(-c2ccc(F)cc2Nc2ncccn2)nc(-c2c(Cl)ccc3[nH]ncc23)c1N [Compound 949] | 50 nM |  | 
27 | Cc1ccc2[nH]ncc2c1-c1nc(-c2cc(F)cnc2NCC2(O)CCC2)nc(C(N)=O)c1N [Compound 691] |  | 228 nM | 
28 | Cc1ccc2[nH]ncc2c1-c1nc(-c2cccnc2NC[C@@H]2CCCO2)nc(C(N)=O)c1N [Compound 670] |  | 198 nM | 
29 | Cc1ccc2[nH]ncc2c1-c1nc(-c2cccnc2Nc2cncc(F)n2)nc(C(N)=O)c1N [Compound 753] |  | 59 nM | 
30 | COc1ccccc1-c1nc(C(N)=O)c(N)c(-c2c(C)ccc3[nH]ncc23)n1 [Compound 777] |  | > 10000 nM | 
31 | Cc1ccc2[nH]ncc2c1-c1nc(-c2ccc(F)cc2Nc2cnccc2C#N)nc(C(N)=O)c1N [Compound 699] |  | 48 nM | 
32 | Cc1ccc2[nH]ncc2c1-c1nc(-c2cc(Cl)ncc2Nc2ncccc2F)nc(C(N)=O)c1N [Compound 939] | 9 nM |  | 
33 | Cc1ccc2[nH]ncc2c1-c1nc(-c2cccnc2Nc2cccnc2)nc(C(N)=O)c1N [Compound 768] |  |  | IC50 (2 h compound incubation): 122 nM
34 | Cc1ccc2[nH]ncc2c1-c1nc(-c2cccnc2Nc2ncccc2C2CC2)nc(C(N)=O)c1N [Compound 729] |  | 57 nM | 
35 | Cc1cc(F)c2[nH]ncc2c1-c1nc(-c2ccc(C(F)F)nc2Nc2nccnc2Cl)nc(C(N)=O)c1N [Compound 909] | 107 nM |  | 
36 | Cc1ncc(F)c(Nc2cc(F)ccc2-c2nc(C(N)=O)c(N)c(-c3c(C)ccc4[nH]ncc34)n2)n1 [Compound 714] |  | 13 nM | 
37 | Cc1ccc2[nH]ncc2c1-c1nc(-c2cc(F)cnc2N[C@@H]2C[C@@H]3CC[C@H]2O3)nc(C(N)=O)c1N [Compound 890] |  |  | IC50 (2 hours with compound): 81 nM
38 | Cc1ccc2[nH]ncc2c1-c1nc(-c2cc(F)cnc2N[C@@H]2CCOC2)nc(C(N)=O)c1N [Compound 685] |  | 12 nM | 
39 | Cc1ccc2[nH]ncc2c1-c1nc(-c2ccc(F)cc2Nc2ccnc(C)c2C)nc(C(N)=O)c1N [Compound 584] |  | 18 nM | 
40 | Cc1ccc2[nH]ncc2c1-c1cc(-c2ccnc(OCC(F)(F)F)n2)nc(C(N)=O)c1N [Compound 165] |  |  | IC50 (2 h incubation): > 10000 nM

Row | SMILES | IC50 (2 h, 2 hours with compound) | IC50 (2 h, 2 h compound incubation) | other results
41 | Cc1ccc2[nH]ncc2c1-c1nc(-c2cccnc2Nc2nc(C#N)ccc2Cl)nc(C(N)=O)c1N [Compound 743] |  | 3 nM | 
42 | Cc1ccc2[nH]ncc2c1-c1nc(-c2cc(F)cnc2NC(C)C)nc(C(N)=O)c1N [Compound 679] |  | 13 nM | 
43 | Cc1cc(F)c2[nH]ncc2c1-c1nc(-c2cc(F)cnc2N[C@H]2CCOC2)nc(C(N)=O)c1N [Compound 869] | 55 nM |  | 
44 | CO[C@H]1C[C@H](Nc2ncccc2-c2nc(C(N)=O)c(N)c(-c3c(C)ccc4[nH]ncc34)n2)C1 [Compound 551] |  | 151 nM | 
45 | Cc1ccc2[nH]ncc2c1-c1nc(-c2cn(C)nc2Nc2ncccc2F)nc(C(N)=O)c1N [Compound 925] | 129 nM |  | 
46 | Cc1cc(F)c2[nH]ncc2c1-c1nc(-c2ccc(F)nc2Nc2nc(C(F)F)ccc2F)nc(C(N)=O)c1N [Compound 867] | 14 nM |  | 
47 | Cc1ccc2[nH]ncc2c1-c1nc(-c2ccc(C#N)cc2N[C@H]2C[C@@](C)(O)C2)nc(C(N)=O)c1N [Compound 822] | 172 nM |  | 
48 | Cc1ccc2[nH]ncc2c1-c1nc(-c2ccc(C#N)cc2Nc2nccnc2C)nc(C(N)=O)c1N [Compound 751] |  | 14 nM | 
49 | Cc1ccc2[nH]ncc2c1-c1nc(-c2ccc(F)cc2Nc2nccc(N3CCOCC3)n2)nc(C(N)=O)c1N [Compound 577] |  | 702 nM | 
50 | Cc1ccc2[nH]ncc2c1-c1nc(-c2cc(F)cnc2NCC(C)(C)O)nc(C(N)=O)c1N [Compound 683] |  | 65 nM | 
51 | Cc1c(F)cc2[nH]ncc2c1-c1nc(-c2cc(F)cnc2N[C@H]2CCOC2)nc(C(N)=O)c1N [Compound 847] | 22 nM |  | 
52 | Cc1cc(F)c2[nH]ncc2c1-c1nc(-c2ccc(F)cc2Nc2ncccc2C#N)nc(C(N)=O)c1N [Compound 880] | 8 nM |  | 
53 | COc1ccc(-c2nc(C(N)=O)c(N)c(-c3c(C)ccc4[nH]ncc34)n2)c(Nc2ncccn2)c1 [Compound 636] |  | 97 nM | 
54 | Cc1ccc2[nH]ncc2c1-c1nc(-c2cccnc2NCC(C)(C)O)nc(C(N)=O)c1N [Compound 682] |  | 83 nM | 
55 | Cc1ccc(-c2nc(C(N)=O)c(N)c(-c3c(Cl)ccc4[nH]ncc34)n2)c(Nc2ncccn2)n1 [Compound 950] | 42 nM |  | 
56 | Cc1ccc2[nH]ncc2c1-c1nc(-c2ccc(F)nc2Nc2ncccc2F)nc(C(N)=O)c1N [Compound 929] | 7 nM |  | 
57 | Cc1ccc(C)c(Nc2ncccc2-c2nc(C(N)=O)c(N)c(-c3c(C)ccc4[nH]ncc34)n2)n1 [Compound 707] |  | 38 nM | 
58 | Cc1ccc2[nH]ncc2c1-c1nc(-c2cc(Cl)ccc2Nc2ncccn2)nc(C(N)=O)c1N [Compound 637] |  | 241 nM | 
59 | Cc1ccc2[nH]ncc2c1-c1nc(-c2cccnc2N[C@@H]2CCOC[C@@H]2F)nc(C(N)=O)c1N [Compound 643] |  | 7 nM | 
